The source of these data is patent publication US10766902B2, “Wee-1 inhibiting pyrazolopyrimidinone compounds” (ALMAC DISCOVERY LIMITED, priority 2016, dated 2020).

As a reminder, the IC50 is the midpoint of a concentration-inhibition curve.

SMILES strings stand for the structures.

Sequence of Wee-1 kinase (P30291 whole entry): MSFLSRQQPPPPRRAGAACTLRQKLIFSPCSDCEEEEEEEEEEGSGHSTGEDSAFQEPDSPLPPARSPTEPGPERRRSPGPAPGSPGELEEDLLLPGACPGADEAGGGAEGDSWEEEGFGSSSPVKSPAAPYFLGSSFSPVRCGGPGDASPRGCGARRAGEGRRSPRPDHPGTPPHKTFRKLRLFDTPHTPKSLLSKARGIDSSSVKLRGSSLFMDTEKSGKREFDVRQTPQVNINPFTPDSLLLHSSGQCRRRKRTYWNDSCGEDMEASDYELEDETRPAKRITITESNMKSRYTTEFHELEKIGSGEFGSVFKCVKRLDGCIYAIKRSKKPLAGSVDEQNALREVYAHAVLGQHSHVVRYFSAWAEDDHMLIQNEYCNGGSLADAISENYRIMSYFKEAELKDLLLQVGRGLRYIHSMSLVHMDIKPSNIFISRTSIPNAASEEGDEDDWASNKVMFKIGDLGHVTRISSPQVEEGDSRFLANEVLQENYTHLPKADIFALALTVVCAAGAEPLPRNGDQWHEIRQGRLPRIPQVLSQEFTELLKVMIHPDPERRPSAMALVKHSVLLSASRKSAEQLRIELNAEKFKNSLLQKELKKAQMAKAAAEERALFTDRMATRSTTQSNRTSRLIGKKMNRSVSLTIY

This test concerns the target Wee-1 kinase (Homo sapiens (Human), UniProt P30291). In words: Measurement of Wee-1 kinase activity (ADP-Glo luminescence). The test is classed as biochemical. The settings on record: read-out: Wee1 IC50. As for the experimental part: Method 1: Measurement of Wee-1 Kinase Activity
In the measurement of Wee-1 activity, a commercial peptide Poly(Lys Tyr(4:1)) hydrobromide was purchased from Sigma Aldrich and used as the substrate. Activated Wee-1 kinase was purchased from Invitrogen (PV3817) and an ADP-Glo luminescent kit was purchased from Promega.
All reactions took place in […] volumes in reaction buffer containing 40 mM Tris-HCl and 20 mM magnesium chloride, supplemented with 0.1 mg/mL bovine serum albumin and 2 mM DTT. Compounds were serially diluted in buffer and 5 μL of each concentration pipetted into a white 384 well plate (Sigma Aldrich M6186). A 5 μL aliquot of the Wee-1 enzyme was added to each well and the plate centrifuged for 1 min to ensure mixing of the enzyme and inhibitor.
The plate was incubated at room temperature for 30 minutes before the addition of 2.0 μg/mL of substrate and 30 μM ATP in a 5 μL aliquot. The plate was centrifuged for one minute and incubated for 1 h at RT.
15 μL of ADP-Glo stop reagent was added to each well to quench the reaction and deplete unconverted ATP. The plate was incubated for a further 40 min in the dark at RT.
30 μL of ADP-Glo kinase detection reagent was added to each well, converting ADP to ATP, catalysing the generation of luciferin by luciferase. The plate was shaken for 1 min, and incubated in the dark for an additional hour.
Luminescence from each well was detected using the Biotek Synergy4 HD plate reader and the percentage inhibition of kinase activity calculated for each inhibitor tested. Positive (kinase only) and negative (no kinase) controls were added to each plate to ensure specific interaction of kinase and inhibitor. The IC50 concentration for each inhibitor was calculated by plotting the percentage kinase inhibition against concentration of inhibitor and the curve generated by non-linear regression fitting.
In the case of `C=CCn1c(=O)c2cnc(Nc3ccc(N4CCO[C@H](COC)C4)cc3)nc2n1-c1cncc(N=S(C)(C)=O)n1` [Example 74, 1-(6-{[Dimethyl(oxo)-λ^6-sulfanylidene]amino}pyrazin-2-yl)-6-({4-[(2S)-2-(methoxymethyl)morpholin-4-yl]phenyl}amino)-2-(prop-2-en-1-yl)-1H,2H,3H-pyrazolo[3,4-d]pyrimidin-3-one], the half-inhibitory concentration (IC50) is 0.3 nM.
Consider `C=CCn1c(=O)c2cnc(Nc3ccc(N4CCN(C)CC4)cc3)nc2n1-c1cccc(N=S(C)(C)=O)c1` [Example 16, 1-(3-{[Dimethyl(oxo)-λ^6-sulfanylidene]amino}phenyl)-6-{[4-(4-methylpiperazin-1-yl)phenyl]amino}-2-(prop-2-en-1-yl)-1H,2H,3H-pyrazolo[3,4-d]pyrimidin-3-one], for which the 50% inhibitory concentration (IC50) came out at 1 nM.
As for `C=CCn1c(=O)c2cnc(Nc3ccc(N4CCC(F)(F)CC4)cc3)nc2n1-c1cccc(N=S(C)(C)=O)n1` [Example 34, 1-(6-{[Dimethyl(oxo)-λ^6-sulfanylidene]amino}pyridin-2-yl)-6-{[4-(4,4-difluoropiperidin-1-yl)phenyl]amino}-2-(prop-2-en-1-yl)-1H,2H,3H-pyrazolo[3,4-d]pyrimidin-3-one], the figure is 4.6 nM; as for `COc1ccc(Nc2ncc3c(=O)n(C(C)C)n(-c4cccc(N=S(C)(C)=O)n4)c3n2)cc1` [Example 42, 1-(6-{[Dimethyl(oxo)-λ^6-sulfanylidene]amino}pyridin-2-yl)-6-[(4-methoxyphenyl)amino]-2-(propan-2-yl)-1H,2H,3H-pyrazolo[3,4-d]pyrimidin-3-one], 1.1 nM.
As for `C=CCn1c(=O)c2cnc(Nc3ccc(N4CCN(C)CC4)c(C)c3)nc2n1-c1cccc(N=S(C)(C)=O)n1` [Example 28, 1-(6-{[Dimethyl(oxo)-λ^6-sulfanylidene]amino}pyridin-2-yl)-6-{[3-methyl-4-(4-methylpiperazin-1-yl)phenyl]amino}-2-(prop-2-en-1-yl)-1H,2H,3H-pyrazolo[3,4-d]pyrimidin-3-one], the IC50 came out at 0.7 nM.
As to `C=CCn1c(=O)c2cnc(Nc3ccc4c(c3)CN(C)CC43CC3)nc2n1-c1cccc(N=S(C)(C)=O)n1` [Example 15, 1-(6-{[Dimethyl(oxo)-λ^6-sulfanylidene]amino}pyridine-2-yl)-6-({2′-methyl-2′,3′-dihydro-1′H-spiro[cyclopropane-1,4′-isoquinoline]-7′-yl}amino)-2-(prop-2-en-1-yl)-1H,2H,3H-pyrazolo[3,4-d]pyrimidin-3-one], the half-maximal inhibitory concentration (IC50) is 0.9 nM.
As for `C=CCn1c(=O)c2cnc(Nc3cnn(C)c3)nc2n1-c1cccc(N=[S@@](C)(=O)c2ccccc2)n1` [Example 79, 1-(6-{[(S)-Methyl(oxo)phenyl-λ^6-sulfanylidene]amino}pyridin-2-yl)-6-[(1-methyl-1H-pyrazol-4-yl)amino]-2-(prop-2-en-1-yl)-1H,2H,3H-pyrazolo[3,4-d]pyrimidin-3-one], the figure is 46 nM; as for `C=CCn1c(=O)c2cnc(Nc3ccc(N(C)CCOC)cc3)nc2n1-c1cccc(N=S(C)(C)=O)n1` [Example 89, 1-(6-{[Dimethyl(oxo)-λ^6-sulfanylidene]amino}pyridin-2-yl)-6-({4-[(2-methoxyethyl)(methyl)amino]phenyl}amino)-2-(prop-2-en-1-yl)-1H,2H,3H-pyrazolo[3,4-d]pyrimidin-3-one], 0.2 nM.
The figure for `CC(C)n1c(=O)c2cnc(Nc3ccc(Cl)cc3)nc2n1-c1cccc(N=S(C)(C)=O)n1` [Example 61, 6-[(4-Chlorophenyl)amino]-1-(6-{[dimethyl(oxo)-λ^6-sulfanylidene]amino}pyridin-2-yl)-2-(propan-2-yl)-1H,2H,3H-pyrazolo[3,4-d]pyrimidin-3-one] is 0.6 nM.
The figure for `C=CCn1c(=O)c2cnc(Nc3cnn(C(C)C)c3)nc2n1-c1cccc(N=S(C)(C)=O)n1` [Example 80, 1-(6-{[Dimethyl(oxo)-λ^6-sulfanylidene]amino}pyridin-2-yl)-2-(prop-2-en-1-yl)-6-{[1-(propan-2-yl)-1H-pyrazol-4-yl]amino}-1H,2H,3H-pyrazolo[3,4-d]pyrimidin-3-one] is 0.3 nM; for `C=CCn1c(=O)c2cnc(Nc3cccc(N4CCOCC4)c3)nc2n1-c1cccc(N=S(C)(C)=O)n1` [Example 35, 1-(6-{[Dimethyl(oxo)-λ^6-sulfanylidene]amino}pyridin-2-yl)-6-{[3-(morpholin-4-yl)phenyl]amino}-2-(prop-2-en-1-yl)-1H,2H,3H-pyrazolo[3,4-d]pyrimidin-3-one] it is 0.6 nM; for `C=CCn1c(=O)c2cnc(Nc3ccc(N4CCN(C5CC5)CC4)cc3)nc2n1-c1cccc(N=S(C)(C)=O)n1` [Example 8, 6-{[4-(4-Cyclopropylpiperazin-1-yl)phenyl]amino}-1-(6-{[dimethyl(oxo)-λ^6-sulfanylidene]amino}pyridine-2-yl)-2-(prop-2-en-1-yl)-1H,2H,3H-pyrazolo[3,4-d]pyrimidin-3-one] it is 0.3 nM.
As to `C=CCn1c(=O)c2cnc(Nc3ccc(N4CCNCC4)cc3)nc2n1-c1cccc(N=S(C)(C)=O)c1` [Example 18, 1-(3-{[Dimethyl(oxo)-λ^6-sulfanylidene]amino}phenyl)-6-{[4-(piperazin-1-yl)phenyl]amino}-2-(prop-2-en-1-yl)-1H,2H,3H-pyrazolo[3,4-d]pyrimidin-3-one], the IC50 is 0.8 nM.
As for `CC(C)n1c(=O)c2cnc(N(c3ccc(C#N)cc3)c3ccc(C#N)cc3)nc2n1-c1cccc(N=S(C)(C)=O)n1` [Example 60, 4-[(4-Cyanophenyl)[1-(6-{[dimethyl(oxo)-λ^6-sulfanylidene]amino}pyridin-2-yl)-3-oxo-2-(propan-2-yl)-1H,2H,3H-pyrazolo[3,4-d]pyrimidin-6-yl]amino]benzonitrile], the figure is 760 nM.
As for `C=CCn1c(=O)c2cnc(Nc3cnn(C4CCCCC4)c3)nc2n1-c1cccc(N=S(C)(C)=O)n1` [Example 96, 2-Allyl-6-((1-cyclohexyl-1H-pyrazol-4-yl)amino)-1-(6-((dimethyl(oxo)-λ^6-sulfaneylidene)amino)pyridin-2-yl)-1,2-dihydro-3H-pyrazolo[3,4-d]pyrimidin-3-one], the figure is 0.4 nM; as for `C=CCn1c(=O)c2cnc(Nc3cc(F)cc(F)c3)nc2n1-c1cccc(N=S(C)(C)=O)n1` [Example 84, 6-[(3,5-Difluorophenyl)amino]-1-(6-{[dimethyl(oxo)-λ^6-sulfanylidene]amino}pyridin-2-yl)-2-(prop-2-en-1-yl)-1H,2H,3H-pyrazolo[3,4-d]pyrimidin-3-one], 1 nM; as for `C=CCn1cc(Nc2ncc3c(=O)n(CC=C)n(-c4cccc(N=S(C)(C)=O)n4)c3n2)cn1` [Example 95, 2-Allyl-6-((1-allyl-1H-pyrazol-4-yl)amino)-1-(6-((dimethyl(oxo)-λ^6-sulfaneylidene)amino)pyridin-2-yl)-1,2-dihydro-3H-pyrazolo[3,4-d]pyrimidin-3-one], 0.8 nM.
As for `C=CCn1c(=O)c2cnc(Nc3ccc(N4CCOCC4)cc3)nc2n1-c1nccc(N=S(C)(C)=O)n1` [Example 52, 1-(4-{[Dimethyl(oxo)-λ^6-sulfanylidene]amino}pyrimidin-2-yl)-6-{[4-(morpholin-4-yl)phenyl]amino}-2-(prop-2-en-1-yl)-1H,2H,3H-pyrazolo[3,4-d]pyrimidin-3-one], the half-maximal inhibitory concentration (IC50) stood at 0.8 nM.
The figure for `C=CCn1c(=O)c2cnc(Nc3ccc(N4CCN(C)CC4)c(OC)c3)nc2n1-c1cccc(N=S(C)(C)=O)n1` [Example 24, 1-(6-{[Dimethyl(oxo)-λ^6-sulfanylidene]amino}pyridin-2-yl)-6-{[3-methoxy-4-(4-methylpiperazin-1-yl)phenyl]amino}-2-(prop-2-en-1-yl)-1H,2H,3H-pyrazolo[3,4-d]pyrimidin-3-one] is 1.4 nM.
As for `C=CCn1c(=O)c2cnc(Nc3ccc(N4C[C@@H]5C[C@H]4CO5)cc3)nc2n1-c1cccc(N=S(C)(C)=O)n1` [Example 68, 1-(6-{[Dimethyl(oxo)-λ^6-sulfanylidene]amino}pyridin-2-yl)-6-({4-[(1S,4S)-2-oxa-5-azabicyclo[2.2.1]heptan-5-yl]phenyl}amino)-2-(prop-2-en-1-yl)-1H,2H,3H-pyrazolo[3,4-d]pyrimidin-3-one], the figure is 0.3 nM; as for `C=CCn1c(=O)c2cnc(Nc3cnn(CC(F)(F)F)c3)nc2n1-c1cccc(N=S(C)(C)=O)n1` [Example 85, 1-(6-{[Dimethyl(oxo)-λ^6-sulfanylidene]amino}pyridin-2-yl)-2-(prop-2-en-1-yl)-6-{[1-(2,2,2-trifluoroethyl)-1H-pyrazol-4-yl]amino}-1H,2H,3H-pyrazolo[3,4-d]pyrimidin-3-one], 0.6 nM; as for `C=CCn1c(=O)c2cnc(Nc3ccc(F)cc3)nc2n1-c1cccc(N=S(C)(C)=O)n1` [Example 40, 1-(6-{[Dimethyl(oxo)-λ^6-sulfanylidene]amino}pyridin-2-yl)-6-[(4-fluorophenyl)amino]-2-(prop-2-en-1-yl)-1H,2H,3H-pyrazolo[3,4-d]pyrimidin-3-one], 0.2 nM.
